This note sets out measurements from patent US20240317866A1, “Use of Anti-EGFR/Anti-Met Antibody to Treat Gastric or Esophageal Cancer” (Janssen Biotech, Inc., priority 2022, published 2024).

What all share (type): in vivo, BALB/c nude mice
One test deals with GA0075 gastric PDX. Description: Gastric PDX model GA0075, tumor growth inhibition. As to conditions: amivantamab 10 mg/kg i.p. BIW, 5-FU 10 mg/kg i.p. QD 5 days/week, cisplatin 4 mg/kg i.p. QW, paclitaxel 15 mg/kg i.v. QW, vs isotype control, Day28. As for the experimental part: (§1) Tumor fragments from stock tumor bearing mice were harvested and inoculated into BALB/c nude mice. Each mouse was inoculated subcutaneously in the right flank with indicated tumor fragments (2-3 mm in diameter) for tumor development.
(§2) After establishment of palpable lesions, the tumor growth was measured twice weekly. Once the mean tumor volume reached approximate 150 mm^3, animals were randomly allocated to relevant study groups with 8 mice per group. The randomization was performed according to the tumor size of each group, and the day of randomization was denoted as Day0. The treatments were started on the same day of randomization according to the dosing regimen in Table 18 where appropriate.
(§3) The study endpoints were to compare the tumor growth in each group at the end of treatments, and the subsequent tumor outgrowth after dosing stopped. The tumor size was measured twice weekly in two dimensions using a caliper, and the tumor volume was expressed in mm3 using the formula V=0.5×L×W^2, where V was tumor volume, L was tumor length (longest tumor dimension) and W was tumor width (longest tumor dimension perpendicular to L).
(§4) Tumor growth inhibition (TGI %) was an indication of anti-tumor activities, and calculated as TGI %=(1−(T−T0)/(C−C0))×100%, T and C were the mean tumor volume (TV) of treated and control groups, respectively on the day when mean TV of control group were terminated per study design.

In the next test the test system is GA0152 gastric PDX. Description: Gastric PDX model GA0152, tumor growth inhibition. As to conditions: amivantamab 10 mg/kg i.p. BIW, 5-FU 10 mg/kg i.p. QD 5 days/week, cisplatin 4 mg/kg i.p. QW, paclitaxel 15 mg/kg i.v. QW, vs isotype control. As for the experimental part:
as §1, §2, §3, §4

In another test the test system is GA3121 gastric PDX. Description: Gastric PDX model GA3121, tumor growth inhibition. Conditions: amivantamab 10 mg/kg i.p. BIW, paclitaxel 10 mg/kg i.v. QW, vs isotype control. As for the experimental part: as §1, §2
The study endpoints were to compare the tumor growth in each group at the end of treatments, and the subsequent tumor outgrowth after dosing stopped. The tumor size was measured twice weekly in two dimensions using a caliper, and the tumor volume was expressed in mm3 using the formula V=0.5×L×W^2, where V was tumor volume, L was tumor length (longest tumor dimension) and W was tumor width (longest tumor dimension perpendicular to L). […]

The next test relates to GA0046 gastric PDX. Description: Gastric PDX model GA0046, tumor growth inhibition.

Turning to `CC(=O)O[C@H]1C(=O)[C@@]2(C)[C@H]([C@H](OC(=O)c3ccccc3)[C@]3(O)C[C@H](OC(=O)[C@H](O)[C@@H](NC(=O)c4ccccc4)c4ccccc4)C(C)=C1C3(C)C)[C@]1(OC(C)=O)CO[C@@H]1C[C@@H]2O` [paclitaxel, reference compound], the TGI% in the test on GA0075 gastric PDX is 66.09%; in the test on GA0152 gastric PDX, 27.29%; in the test on GA0152 gastric PDX (listed as paxlitaxel) it was 27.29%; in the test with GA3121 gastric PDX, −12.99%.

For the compound `CNC(=O)c1ccc(-c2cnc3ncc(Cc4ccc5ncccc5c4)n3n2)cc1F` [capmatinib, reference compound], the “effect on tumor growth (in words)” value with GA0046 gastric PDX (amivantamab 10 mg/kg BIW single agent, capmatinib 10 mg/kg BID) is reported as “no effect on tumor growth”. Moreover, the TGI% with GA0046 gastric PDX (amivantamab 10 mg/kg i.p. BIW, capmatinib 10 mg/kg p.o. BID, vs isotype control, Day28) stood at 5.93%.
